pIC50: −log10 of the molar value. Read-outs that look alike come from different tables or passages of the source.
How the values were obtained:
[1] = test system: primary murine bone-marrow neutrophils; test: Live cell imaging viability of primary bone-marrow neutrophils; conditions: G-CSF- or GM-CSF-primed, inhibitors at 1 μM, over 24 hours
Description: Using a high-throughput live cell imaging approach reported previously [15], we examined the effect of the kinase inhibitors on the viability of bone marrow neutrophils to determine their potential to cause neutropenia (Figure 2). Because G-CSF and GM-CSF are dominant regulators of granulopoiesis and neutrophil survival, and are commonly used in a clinical setting to mobilize hematopoietic stem cells into the blood and increase neutrophil production [27–31], we treated cells with these cytokines immediately prior to drug exposure. The addition of either cytokine prevents constitutive neutrophil apoptosis thereby increasing the window for detection of changes in viability induced by drug treatments.
For all above, data represent mean ± SEM from three independent samples.
Mouse bone marrow neutrophils were prepared as described [15]. Neutrophils were resuspended in phenol red-free DMEM/10% FBS for imaging studies. The purity of neutrophil preparations was routinely 96% ± 4% (Mean ± SD, n = 50) as assessed by cytology following May-Grünwald/Giemsa staining.
Kinase inhibitors were purchased from SYN kinase (Melbourne, Australia) and were used at 1 μM, unless otherwise specified, with dilutions performed in assay buffer containing 0.1% DMSO.
Viability was monitored using 2 μg/mL PI (Sigma). Images were captured every 30-60 min by the Zeiss Axiovert 200M Microscope at 37 °C/10% CO2. Quantitative analysis was performed using a custom-scripted MetaMorph (Molecular Devices) journal suite incorporating the count nuclei function, reconstruction & subtraction functions and Integrated Morphometry Analysis to select and analyze cells of interest.

[2] = test system: THP-1; test: Cell Titer Glo cell viability assay, 48 h; assay type: cell-based, human; conditions: 48 h, mean of 2 independent experiments, 0 = less than 10 nM, cell line not given, read-out: IC50 of inhibitors on cell lines, m (mean)
Experimental: (§1) The activity of the kinase inhibitor collection against a panel of human leukemia cell lines was determined in cell viability assays run over 48 h using the Cell Titer Glo reagent.
(§2) Figure 1 Effects of kinase inhibition on the proliferation of leukemia cells A. Human leukemia cell lines were treated with duplicate serial dilutions of kinase inhibitors and the effect on cell viability was determined by Cell Titer Glo assay after 48 hours. […] HL-60 cells were treated with serial dilutions of mTor/PI3K B. and MEK C. inhibitors and the effect on cell viability was determined after 48 hours. Data shown is the mean ± SEM of 3 independent experiments.
(§3) Leukemia and lymphoma cell lines were grown in RPMI containing 10% FCS. […] Cell lines are routinely tested for mycoplasma and genotyped by short tandem repeating (STR) profiling to confirm identity.
(§4) Compounds were obtained from SynMedChem and dissolved at […] in DMSO. Serial 2-fold dilutions of each compound were prepared in DMSO using a liquid handling robot (Janus, Perkin Elmer). Each dilution (100nL) was transferred to duplicate tissue culture plates containing 50 μL of media containing 5 × 10^3 cells using a 384 well pin tool. Cells were incubated for 48 h and cell viability was determined using Cell Titer Glow reagents as described by the manufacturer (Promega). Data was acquired using a luminescent plate reader (Envision, Perkin Elmer) and analysed using Activity Base (IDBS, Guilford, UK) and visualised using Spotfire (TIBCO, Palo Alto, CA) as described previously. Each cell line was assayed in independent experiments on at least two occasions. […] Serial 2-fold dilutions of each compound were prepared in media containing 0.2% DMSO and 50 μl of each dilution was added to 10^4 cells in 50 μl of media. Cells were incubated for 48 h and cell viability was determined using Cell Titer Glow assay as described above.

[3] = test system: OCI-AML3; test: Cell Titer Glo cell viability assay, 48 h; assay type: cell-based, human; conditions: 48 h, mean of 2 independent experiments, 0 = less than 10 nM, cell line not given, read-out: IC50 of inhibitors on cell lines, m (mean)
Experimental: as §1, §2, §3, §4

[4] = test system: KU-812; test: Cell Titer Glo cell viability assay, 48 h; assay type: cell-based, human; conditions: 48 h, mean of 2 independent experiments, 0 = less than 10 nM, cell line not given, read-out: IC50 of inhibitors on cell lines, m (mean)
Experimental: as §1, §2, §3, §4

[5] = test system: HL-60; test: Cell Titer Glo cell viability assay, 48 h; assay type: cell-based, human; conditions: 48 h, mean of 2 independent experiments, 0 = less than 10 nM, cell line not given, read-out: IC50 of inhibitors on cell lines, m (mean)
Experimental: as §1, §2, §3, §4

[6] = test system: MOLT4; test: Cell Titer Glo cell viability assay, 48 h; assay type: cell-based, human; conditions: 48 h, mean of 2 independent experiments, 0 = less than 10 nM, cell line not given, read-out: IC50 of inhibitors on cell lines, m (mean)
Experimental: as §1, §2, §3, §4

[7] = test system: U937; test: Cell Titer Glo cell viability assay, 48 h; assay type: cell-based, human; conditions: 48 h, mean of 2 independent experiments, 0 = less than 10 nM, cell line not given, read-out: IC50 of inhibitors on cell lines, m (mean)
Experimental: as §1, §2, §3, §4

[8] = test system: EOL-1; test: Cell Titer Glo cell viability assay, 48 h; assay type: cell-based, human; conditions: 48 h, mean of 2 independent experiments, 0 = less than 10 nM, cell line not given, read-out: IC50 of inhibitors on cell lines, m (mean)
Experimental: as §1, §2, §3, §4

[9] = test system: MV4;11; test: Cell Titer Glo cell viability assay, 48 h; assay type: cell-based, human; conditions: 48 h, mean of 2 independent experiments, 0 = less than 10 nM, cell line not given, read-out: IC50 of inhibitors on cell lines, m (mean)
Experimental: as §1, §2, §3, §4

[10] = test system: K562; test: Cell Titer Glo cell viability assay, 48 h; assay type: cell-based, human; conditions: 48 h, mean of 2 independent experiments, 0 = less than 10 nM, cell line not given, read-out: IC50 of inhibitors on cell lines, m (mean)
Experimental: as §1, §2, §3, §4

[11] = test system: JURKAT; test: Cell Titer Glo cell viability assay, 48 h; assay type: cell-based, human; conditions: 48 h, mean of 2 independent experiments, 0 = less than 10 nM, cell line not given, read-out: IC50 of inhibitors on cell lines, m (mean)
Experimental: as §1, §2, §3, §4

[12] = test system: HEL.92.1.7; test: Cell Titer Glo cell viability assay, 48 h; assay type: cell-based, human; conditions: 48 h, mean of 2 independent experiments, 0 = less than 10 nM, cell line not given, read-out: IC50 of inhibitors on cell lines, m (mean)
Experimental: as §1, §2, §3, §4

[13] = test system: MEG-01; test: Cell Titer Glo cell viability assay, 48 h; assay type: cell-based, human; conditions: 48 h, mean of 2 independent experiments, 0 = less than 10 nM, cell line not given, read-out: IC50 of inhibitors on cell lines, m (mean)
Experimental: as §1, §2, §3, §4

| pIC50 ([2]; Homo sapiens) | pIC50 ([3]; Homo sapiens, OCI-AML-3) | pIC50 ([5]; Homo sapiens) | pIC50 ([6]; Homo sapiens, MOLT-4) | pIC50 ([7]; Homo sapiens, U-937) | pIC50 ([9]; Homo sapiens) | pIC50 ([10]; Homo sapiens) | pIC50 ([11]; Homo sapiens) | SMILES | effect on mouse neutrophil viability (words) [1] | pIC50 ([4]; Homo sapiens, KU812) | pIC50 ([8]; Homo sapiens, EOL1) | pIC50 ([12]; Homo sapiens) | pIC50 ([13]; Homo sapiens) | further results |
| --- | --- | --- | --- | --- | --- | --- | --- | --- | --- | --- | --- | --- | --- | --- |
|  |  |  |  |  |  |  |  | O=C(Nc1c[nH]nc1-c1nc2cc(CN3CCOCC3)ccc2[nH]1)NC1CC1 [AT9283] | significantly affected neutrophil viability |  |  |  |  | effect on mouse neutrophil viability (words) ([1]; listed as AT-9283): cytotoxicity |
|  |  |  |  |  |  |  |  | Cc1cc(Nc2nc(N[C@@H](C)c3ccc(F)cc3)c(C#N)cc2F)n[nH]1 [AZ-960] | significantly affected neutrophil viability |  |  |  |  |  |
|  |  |  |  |  |  |  |  | Cc1cnc(Nc2ccc(OCCN3CCCC3)cc2)nc1Nc1cccc(S(=O)(=O)NC(C)(C)C)c1 [TG-101348] | cytotoxicity |  |  |  |  |  |
|  |  |  |  |  |  |  |  | C[C@@H]1CCN(C(=O)CC#N)C[C@@H]1N(C)c1ncnc2[nH]ccc12 [CP690550] | did not |  |  |  |  |  |
|  |  |  |  |  |  |  |  | N#CCNC(=O)c1ccc(-c2ccnc(Nc3ccc(N4CCOCC4)cc3)n2)cc1 [CYT387] | did not |  |  |  |  |  |
| 5.24 | 6.10 | 5.61 | 5.59 | 5.26 | 7.30 | 6.37 | 5.30 | Cc1cc(Nc2cc(N3CCN(C)CC3)nc(Sc3ccc(NC(=O)C4CC4)cc3)n2)[nH]n1 [VX-680] |  | 6.74 | 7.15 | 5.10 | 6.28 |  |
|  |  |  |  |  |  |  |  | CC(=O)Nc1ccc([C@H](C)C(=O)Nc2ncc(C(C)C)s2)cc1 [PHA690509] |  |  |  |  |  | pIC50 [2]: 5.22; pIC50 [3]: 5.21; pIC50 [4]: 5.41; pIC50 [5]: 5.63; pIC50 [6]: 5.33; pIC50 [7]: 5.98; pIC50 [8]: 5.27; pIC50 [9]: 5.23; pIC50 [10]: 5.22; pIC50 [11]: 5.49; pIC50 [12]: 5.54; pIC50 [13]: 5.27 |
| 5.48 | 5.57 | 5.85 | 5.23 | 5.47 | 5.59 | 5.39 | 5.42 | CN(C)CCOc1ccc(-c2nc(-c3ccncc3)c(-c3ccc4c(c3)CC/C4=N\O)[nH]2)cc1 [SB590885] |  | 5.30 | 5.89 | 5.28 | 5.30 |  |
|  |  |  |  |  |  |  |  | Cc1cc(Nc2nc(N[C@@H](C)c3ncc(F)cn3)ncc2Cl)n[nH]1 [AZD1480] | significantly affected neutrophil viability |  |  |  |  | effect on mouse neutrophil viability (words) ([1]; listed as AZD-1480): cytotoxicity |
| < 5.00 | < 5.00 | 5.04 | < 5.00 | 5.22 | 5.58 | < 5.00 | < 5.00 | CN(C)CCOc1cc(-c2cn[nH]c2)ccc1NC(=O)C1COc2ccccc2O1 (stereo not drawn) [SR3677] |  | 5.82 | 6.12 | < 5.00 | 5.09 |  |

| SMILES | pIC50 ([2]; Homo sapiens) | pIC50 ([3]; Homo sapiens, OCI-AML-3) | pIC50 ([5]; Homo sapiens) | pIC50 ([6]; Homo sapiens, MOLT-4) | pIC50 ([7]; Homo sapiens, U-937) | pIC50 ([9]; Homo sapiens) | pIC50 ([10]; Homo sapiens) | pIC50 ([11]; Homo sapiens) | effect on mouse neutrophil viability (words) [1] | pIC50 ([4]; Homo sapiens, KU812) | pIC50 ([8]; Homo sapiens, EOL1) | pIC50 ([12]; Homo sapiens) | pIC50 ([13]; Homo sapiens) | further results |
| --- | --- | --- | --- | --- | --- | --- | --- | --- | --- | --- | --- | --- | --- | --- |
| Oc1cccc(-c2nc(N3CCOCC3)c3oc4ncccc4c3n2)c1 [PI103] | 6.06 | 6.80 | 6.54 | 6.68 | 6.59 | 6.70 | 5.64 | 6.02 | some neutrophil toxicity | 5.47 | 6.66 | 5.72 | 5.82 |  |

Reference: PMC5601625, “Defining a therapeutic window for kinase inhibitors in leukemia to avoid neutropenia” (Oncotarget, 2017)
